Laboratory results as given in patent publication US10167299B2, “1-(3-aminopropyl) substituted cyclic amine compounds, preparation method therefor, and pharmaceutical compositions and uses thereof” (SHANGHAI INSTITUTE OF MATERIA MEDICA, CHINESE ACADEMY OF …, priority 2013, dated 2019).
Converted amounts (≈) assume the structure as drawn. Like-named read-outs stand apart in the source and are kept apart here.

Assays:
[1] = Cytotoxicity (CC50) in TZM-bl cells; assay type: cell-based; conditions: human; TZM-bl cells (Table 3); read-out: CC50
HIV-1SF162 virus strain [2] = experiment: Inhibition of viral replication in PBMC infected with HIV-1SF162; assay type: cell-based
Method: (§1) The virus was titrated according to the modified method of Johnson & Byington. Briefly, the HIV-1 stock solution was subject to four-fold dilution in a 96-well plate (ten gradients) sextuplicate for each gradient, while setting six control-wells. Into each well was added 100 μl (5×10^6/ml) PHA-stimulated PBMC cells and final volume per well was 200 μl. The cells were cultured at 37° C. with 5% CO2. […] On the seventh day, the infected supernatant was collected and lysed with 0.5% Triton X100. The p24 antigen was detected by ELISA and TCID50 of virus was calculated according to Reed & Muench method (50% Tissue culture infection dose).
(§2) The starting concentration was 1 μM, six dilutions were obtained, and each well contained 200 μl mixture. While wells not containing drugs were set as control. […] After homogeneously mixed, the mixture was immediately added to 48-well plate containing diluted drug and each well was added with 200 μl of mixture. MVC was used as positive control. The cells were cultured at 37° C. with 5% CO2 for seven days (drug with the same concentration was added on the third day). The supernatant was collected, lysed and inactivated with 0.5% Triton X-100. The inhibition effect of drug on HIV-1 replication was detected using p24 antigen capture ELISA method.

HIV-1KM018 virus strain = experiment: Inhibition of viral replication in PBMC infected with HIV-1KM018; assay type: cell-based
Method: as §1, §2

HIV-1Ba-L virus strain [3] = experiment: Inhibition of viral replication in PBMC infected with HIV-1Ba-L; assay type: cell-based
Method: The virus was titrated according to the modified method of Johnson & Byington. Briefly, the HIV-1 stock solution was subject to four-fold dilution in a 96-well plate (ten gradients) sextuplicate for each gradient, while setting six control-wells. Into each well was added 100 μl (5×10^6/ml) PHA-stimulated PBMC cells and final volume per well was 200 μl. The cells were cultured at 37° C. with 5% CO2. On the third day, 100 μl of fresh RPMI-1640 complete medium was supplemented. On the seventh day, the infected supernatant was collected and lysed with 0.5% Triton X100. The p24 antigen was detected by ELISA and TCID50 of virus was calculated according to Reed & Muench method (50% Tissue culture infection dose).
The compound to be tested was subject to 5-fold dilution in 48-well plate with RPMI-1640 complete medium (containing 10% FBS). The starting concentration was 1 μM, six dilutions were obtained, and each well contained 200 μl mixture. While wells not containing drugs were set as control. Virus (MOI=0.01) was added to 5×10^6/ml of PBMC cells which have been stimulated by PHA for 72 h. After homogeneously mixed, the mixture was immediately added to 48-well plate containing diluted drug and each well was added with 200 μl of mixture. MVC was used as positive control. The cells were cultured at 37° C. with 5% CO2 for seven days (drug with the same concentration was added on the third day). The supernatant was collected, lysed and inactivated with 0.5% Triton X-100. The inhibition effect of drug on HIV-1 replication was detected using p24 antigen capture ELISA method.

[4] = Toxicity test of compounds on PBMC cells (MTT); assay type: cell-based; conditions: human, PBMC cells (Table 4)
Method: (§3) The compound to be tested was subject to 5-fold dilution in a 96-well microtiter plate with RPMI-1640 or DMEM complete medium (containing 10% FBS) (Six dilution) triplicate for each dilution and 100 μl for each well. While wells not containing drugs were set as control. Into each well was added 100 μl of 4×10^5/ml PM1, HOS-CD4-CCR5 cells or 100 μl of 5×10^6/ml PHA stimulated PBMC. The cells were cultured at 37° C. with 5% CO2 for three days (PBMC cells were cultured for seven days and 100 μl of fresh RPMI-1640 complete medium was supplemented on the third day). Cytotoxicity was tested with MTT assay. OD values were measured by ELx800 microplate reader. The detection wavelength was 570 nm, and the reference wavelength was 630 nm.

HIV-1Ba-L virus strain [5] = experiment: Inhibition of viral replication in HOS-CD4-CCR5 cells infected with HIV-1Ba-L; assay type: cell-based
Method: (§4) On the day before the test, 1×10^5/ml of HOS-CD4-CCR5 cells were inoculated in 96-well plates with 100 μl for each well. The compound to be tested was subject to 5-fold dilution in 96-well microtiter plate with DMEM complete medium (containing 10% FBS). The starting concentration was 1 μM and six dilutions were obtained. Triplicate wells were set for each dilution and each well contained 100 μl mixture. While wells not containing drugs were set as control. The supernatant was removed and 100 μl of drug was added and incubated for 2 h. Then 100 μl of HIV-1SF162 and HIV-1Ba-L were added to dilute supernatant. The cells were infected for 1 h, free virus was washed out and drug with the same final concentration was added. MVC was used as positive control. The cells were cultured at 37° C. with 5% CO2 for three days. The supernatant was collected, lysed and inactivated with 0.5% Triton X-100. The inhibition effect of drug on HIV-1 replication was detected using p24 antigen capture ELISA method.

HIV-1SF162 virus strain [6] = experiment: Inhibition of viral replication in HOS-CD4-CCR5 cells infected with HIV-1SF162; assay type: cell-based
Method: as §4

[7] = Toxicity test of compounds on HOS-CD4-CCR5 cells (MTT); assay type: cell-based; conditions: human; HOS-CD4+-CCR5 cells (Table 7)
Method: as §3

in vivo = conditions: male, rat
HIV-1SF162 virus strain [8] = experiment: Inhibition activity on TZM-bl cells infected with HIV-1SF162; conditions: for EC50: Human immunodeficiency virus 1, TZM-bl; for therapeutic index (TI): TZM-bl cells infected with HIV-1SF162; for cytotoxicity in vitro and therapeutic index in words, versus positive control compound: TZM-bl cells infected with HIV-1SF162, conclusion from Table 3
[9] = PBMC cells infected with HIV-1SF162
[10] = PBMC cells infected with HIV-1KM018
[11] = PBMC cells infected with HIV-1Ba-L
[12] = Human immunodeficiency virus 1, PBMC
[13] = Human immunodeficiency virus 1, HOS-CD4-CCR5

Cc1nnc(C(C)C)n1C1CCN(CC[C@H](NC(=O)C2CCCC2)c2cccs2)CC1 [Compound 17, N-[(1S)-3-[4-(3-isopropyl-5-methyl-4H-1,2,4-triazol-4-yl)-piperidin-1-yl]-1-(thiophen-2-yl)propyl]cyclopentane-1-carboxamide]
CC50 [1]: > 200 µg/mL
EC50 (HIV-1SF162 virus strain [2]; Human immunodeficiency virus 1, PBMC cells infected with HIV-1SF162, read-out: EC50): 0.0413 µg/mL (≈ 0.0931 µM)
therapeutic index (TI) (HIV-1SF162 virus strain [2]; [9]): 10621
EC50 (HIV-1KM018 virus strain; Human immunodeficiency virus 1, PBMC cells infected with HIV-1KM018, read-out: EC50): > 1 µg/mL
therapeutic index (TI) (HIV-1KM018 virus strain; [10]): <438.6
EC50 (HIV-1Ba-L virus strain [3]; Human immunodeficiency virus 1, PBMC cells infected with HIV-1Ba-L, read-out: EC50): 0.848 µg/mL (≈ 1.91 µM)
therapeutic index (TI) (HIV-1Ba-L virus strain [3]; [11]): 438.6
CC50 at 7 days ([4]; PHA stimulated PBMC): 439 µg/mL (≈ 989 µM)
EC50 (HIV-1Ba-L virus strain [5]; Human immunodeficiency virus 1, HOS-CD4+-CCR5 cells infected with HIV-1Ba-L, read-out: EC50): 0.0155 µg/mL (≈ 0.035 µM)
therapeutic index (TI) (HIV-1SF162 virus strain [6]; HOS-CD4+-CCR5 cells infected with HIV-1SF162): 8632
EC50 (HIV-1SF162 virus strain [6]; Human immunodeficiency virus 1, HOS-CD4+-CCR5 cells infected with HIV-1SF162, read-out: EC50): 0.0509 µg/mL (≈ 0.115 µM)
CC50 at 3 days [7]: 439 µg/mL (≈ 990 µM)
half-life (in vivo; iv, 10 mg/kg): 2.22 h
half-life (in vivo; po, 20 mg/kg): 1.78 h
EC50 (HIV-1SF162 virus strain [8]): 0.0129 µg/mL (≈ 0.0292 µM)
therapeutic index (TI) (HIV-1SF162 virus strain [8]): >15444.02
cytotoxicity in vitro and therapeutic index in words, versus positive control compound (HIV-1SF162 virus strain [8]): comparable with the positive control compound

Cc1nnc(C(C)C)n1C1CC2CCC(C1)N2CC[C@H](NC(=O)C1CCCC1)c1cccs1 (stereo partly drawn) [Compound 18, N-[(1S)-3-[exo-3-(3-isopropyl-5-methyl-4H-1,2,4-triazol-4-yl)-8-azabicyclo[3.2.1]octane-8-yl]-1-(thiophen-2-yl)propyl]cyclopentane-1-carboxamide]
CC50 [1]: > 200 µg/mL
EC50 (HIV-1SF162 virus strain [2]; [12]): 0.0927 µg/mL (≈ 0.197 µM)
therapeutic index (TI) (HIV-1SF162 virus strain [2]; [9]): 3721
EC50 (HIV-1KM018 virus strain; [12]): 0.0699 µg/mL (≈ 0.149 µM)
therapeutic index (TI) (HIV-1KM018 virus strain; [10]): 4935.2
EC50 (HIV-1Ba-L virus strain [3]; [12]): 0.289 µg/mL (≈ 0.616 µM)
therapeutic index (TI) (HIV-1Ba-L virus strain [3]; [11]): 2266.5
CC50 at 7 days [4]: 345 µg/mL (≈ 735 µM)
EC50 (HIV-1Ba-L virus strain [5]; [13]): 0.0034 µg/mL (≈ 0.00724 µM)
EC50 (HIV-1SF162 virus strain [6]; [13]): 0.0203 µg/mL (≈ 0.0432 µM)
CC50 at 3 days [7]: 507 µg/mL (≈ 1080 µM)
bioavailability (in vivo): 90.5%
AUC(0-t) (in vivo; 10 mg/kg): 1550 ng·h/mL
AUC(0-inf) (in vivo; iv, 10 mg/kg): 1600 ng·h/mL
AUC(0-t) (in vivo; iv, 10 mg/kg): 1550 ng·h/mL
Cmax (in vivo; iv, 10 mg/kg): 771 ng/mL
MRT (in vivo; iv, 10 mg/kg): 1.98 h
Tmax (in vivo; iv, 10 mg/kg): 0.25 h
half-life (in vivo; iv, 10 mg/kg): 1.81 h
AUC(0-inf) (in vivo; po, 20 mg/kg): 3070 ng·h/mL
AUC(0-t) (in vivo; po, 20 mg/kg): 2800 ng·h/mL
Cmax (in vivo; po, 20 mg/kg): 690 ng/mL
MRT (in vivo; po, 20 mg/kg): 2.94 h
Tmax (in vivo; po, 20 mg/kg): 2 h
bioavailability (in vivo; po, 20 mg/kg): 90.5%
half-life (in vivo; po, 20 mg/kg): 2.05 h
EC50 (HIV-1SF162 virus strain [8]): 0.00123 µg/mL (≈ 0.00262 µM)
therapeutic index (TI) (HIV-1SF162 virus strain [8]): >162601.63
cytotoxicity in vitro and therapeutic index in words, versus positive control compound (HIV-1SF162 virus strain [8]): better than positive control compound

Cc1nnc(C(C)C)n1C1CC2CCC(C1)N2CC[C@H](NC(=O)C1CCC(F)(F)CC1)c1ccsc1 (stereo partly drawn) [Compound 22, 4,4-difluoro-N-[(1S)-3-[exo-3-(3-isopropyl-5-methyl-4H-1,2,4-triazol-4-yl)-8-azabicyclo[3.2.1]octane-8-yl]-1-(thiophen-3-yl)propyl]cyclohexane-1-carboxamide]
CC50 [1]: > 200 µg/mL
EC50 (HIV-1SF162 virus strain [2]; [12]): 0.00265 µg/mL (≈ 0.0051 µM)
EC50 (HIV-1KM018 virus strain; [12]): 0.00533 µg/mL (≈ 0.0103 µM)
EC50 (HIV-1Ba-L virus strain [3]; [12]): 0.00513 µg/mL (≈ 0.00987 µM)
CC50 at 7 days [4]: 635 µg/mL (≈ 1220 µM)
EC50 (HIV-1Ba-L virus strain [5]; [13]): 0.00483 µg/mL (≈ 0.00929 µM)
EC50 (HIV-1SF162 virus strain [6]; [13]): 0.00915 µg/mL (≈ 0.0176 µM)
CC50 at 3 days [7]: > 800 µg/mL
bioavailability (in vivo): 14.5%
AUC(0-t) (in vivo; 10 mg/kg): 4150 ng·h/mL
AUC(0-inf) (in vivo; iv, 10 mg/kg): 4160 ng·h/mL
AUC(0-t) (in vivo; iv, 10 mg/kg): 4150 ng·h/mL
Cmax (in vivo; iv, 10 mg/kg): 3780 ng/mL
MRT (in vivo; iv, 10 mg/kg): 0.84 h
Tmax (in vivo; iv, 10 mg/kg): 0.25 h
half-life (in vivo; iv, 10 mg/kg): 1 h
AUC(0-inf) (in vivo; po, 20 mg/kg): 1260 ng·h/mL
AUC(0-t) (in vivo; po, 20 mg/kg): 1210 ng·h/mL
Cmax (in vivo; po, 20 mg/kg): 306 ng/mL
MRT (in vivo; po, 20 mg/kg): 2.55 h
Tmax (in vivo; po, 20 mg/kg): 2 h
bioavailability (in vivo; po, 20 mg/kg): 14.5%
half-life (in vivo; po, 20 mg/kg): 1.55 h
EC50 (HIV-1SF162 virus strain [8]): 0.00153 µg/mL (≈ 0.00294 µM)
therapeutic index (TI) (HIV-1SF162 virus strain [8]): >130718.95
cytotoxicity in vitro and therapeutic index in words, versus positive control compound (HIV-1SF162 virus strain [8]): better than positive control compound
